# Source: the supplement of paper PMC12076712
# Assays:
# Experiment in all cases: pIC50, kinobeads binding competition
# UniProt Q6XUX3 = conditions: cell material: Lysate mix
# Procedure, shortened: (§1)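 Nine compound concentrations were tested, starting at 30 μM in 1:4 steps on live Jurkat cells (60 min, 37 °C, then lysis) or in 1:5 steps on Jurkat lysate or a 1:1:1:1 HEK293/K-562/HepG2/placenta lysate mix (60 min, 4 °C). Kinobeads-bound proteins were digested and quantified with TMT10 LC-MS/MS. pIC50 values are from logistic dose-response fits in the R drc package of fold changes relative to vehicle, from biological duplicates.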
# ITK = target: T1, ITK (UniProt Q08881)
# T1 sequence (whole entry): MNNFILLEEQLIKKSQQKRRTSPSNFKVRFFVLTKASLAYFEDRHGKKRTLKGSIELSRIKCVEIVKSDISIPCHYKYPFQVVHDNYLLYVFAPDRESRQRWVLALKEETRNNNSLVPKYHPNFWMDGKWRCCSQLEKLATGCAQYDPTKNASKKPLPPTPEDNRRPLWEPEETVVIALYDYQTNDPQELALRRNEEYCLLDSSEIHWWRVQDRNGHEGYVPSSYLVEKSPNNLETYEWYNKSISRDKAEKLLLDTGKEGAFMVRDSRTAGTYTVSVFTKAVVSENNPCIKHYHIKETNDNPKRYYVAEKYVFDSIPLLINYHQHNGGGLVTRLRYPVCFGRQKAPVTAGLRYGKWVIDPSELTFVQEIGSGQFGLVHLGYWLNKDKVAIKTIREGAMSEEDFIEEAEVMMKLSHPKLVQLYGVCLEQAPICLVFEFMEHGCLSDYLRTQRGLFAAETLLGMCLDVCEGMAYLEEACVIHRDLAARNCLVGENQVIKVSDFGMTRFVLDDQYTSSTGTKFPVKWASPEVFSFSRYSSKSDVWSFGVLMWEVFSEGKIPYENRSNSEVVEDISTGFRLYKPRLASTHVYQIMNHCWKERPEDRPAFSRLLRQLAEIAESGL
# Procedure, shortened: as §1
# PBK = target: T2, PBK (UniProt Q96KB5); conditions: cell material: Jurkat cells
# T2 sequence (whole entry): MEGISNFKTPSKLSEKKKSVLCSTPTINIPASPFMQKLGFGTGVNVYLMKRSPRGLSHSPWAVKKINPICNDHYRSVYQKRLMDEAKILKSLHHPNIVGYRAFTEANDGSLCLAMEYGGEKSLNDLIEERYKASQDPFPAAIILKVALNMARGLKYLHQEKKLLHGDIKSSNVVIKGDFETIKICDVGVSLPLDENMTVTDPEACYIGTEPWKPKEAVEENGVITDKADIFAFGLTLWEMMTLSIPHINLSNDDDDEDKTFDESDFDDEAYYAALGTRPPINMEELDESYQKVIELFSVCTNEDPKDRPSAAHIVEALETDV
# Procedure, shortened: as §1
# RNASEL = RNASEL (UniProt Q05823); conditions: cell material: Jurkat cells
# Chain of RNASEL (Q05823 whole entry): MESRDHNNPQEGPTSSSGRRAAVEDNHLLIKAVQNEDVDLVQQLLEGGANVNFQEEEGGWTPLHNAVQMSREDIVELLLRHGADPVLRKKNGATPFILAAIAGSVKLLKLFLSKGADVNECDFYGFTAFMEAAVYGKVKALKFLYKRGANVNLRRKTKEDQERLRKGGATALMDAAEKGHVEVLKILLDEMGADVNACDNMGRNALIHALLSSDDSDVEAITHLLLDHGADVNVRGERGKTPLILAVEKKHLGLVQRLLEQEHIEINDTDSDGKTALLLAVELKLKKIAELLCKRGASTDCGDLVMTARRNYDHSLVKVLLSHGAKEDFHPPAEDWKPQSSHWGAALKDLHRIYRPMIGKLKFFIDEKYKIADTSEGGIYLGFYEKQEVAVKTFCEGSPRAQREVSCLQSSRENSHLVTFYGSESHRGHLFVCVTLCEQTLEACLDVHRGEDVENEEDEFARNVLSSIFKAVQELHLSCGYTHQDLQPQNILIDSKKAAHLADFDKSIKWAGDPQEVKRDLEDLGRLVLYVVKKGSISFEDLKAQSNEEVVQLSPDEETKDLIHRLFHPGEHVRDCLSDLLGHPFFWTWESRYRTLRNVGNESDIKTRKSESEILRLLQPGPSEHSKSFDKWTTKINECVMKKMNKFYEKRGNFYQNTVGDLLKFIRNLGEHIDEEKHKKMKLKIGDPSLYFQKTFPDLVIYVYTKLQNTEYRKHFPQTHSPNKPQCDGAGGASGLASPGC
# Procedure, shortened: as §1
# RIOK1 = target: T3, RIOK1 (UniProt Q9BRS2)
# T3 sequence (whole entry): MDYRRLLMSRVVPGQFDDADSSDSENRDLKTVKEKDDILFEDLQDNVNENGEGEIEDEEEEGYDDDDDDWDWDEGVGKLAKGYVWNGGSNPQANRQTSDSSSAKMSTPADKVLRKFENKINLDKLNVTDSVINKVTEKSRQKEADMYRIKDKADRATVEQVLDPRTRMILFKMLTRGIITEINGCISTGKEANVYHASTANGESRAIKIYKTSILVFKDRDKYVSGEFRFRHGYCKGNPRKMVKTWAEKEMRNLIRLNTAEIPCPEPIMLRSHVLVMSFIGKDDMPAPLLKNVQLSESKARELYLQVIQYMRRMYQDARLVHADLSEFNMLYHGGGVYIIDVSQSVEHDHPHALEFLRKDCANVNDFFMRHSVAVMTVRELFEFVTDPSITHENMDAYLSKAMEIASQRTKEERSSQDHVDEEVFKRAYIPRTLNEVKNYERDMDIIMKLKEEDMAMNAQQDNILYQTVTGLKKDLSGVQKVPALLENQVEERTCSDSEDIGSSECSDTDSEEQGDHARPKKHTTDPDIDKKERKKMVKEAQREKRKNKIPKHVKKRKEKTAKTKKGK
# Procedure, shortened: as §1
# PIK3R4 = PIK3R4 (UniProt Q99570); conditions: cell material: Jurkat cells
# Chain of PIK3R4 (Q99570 whole entry): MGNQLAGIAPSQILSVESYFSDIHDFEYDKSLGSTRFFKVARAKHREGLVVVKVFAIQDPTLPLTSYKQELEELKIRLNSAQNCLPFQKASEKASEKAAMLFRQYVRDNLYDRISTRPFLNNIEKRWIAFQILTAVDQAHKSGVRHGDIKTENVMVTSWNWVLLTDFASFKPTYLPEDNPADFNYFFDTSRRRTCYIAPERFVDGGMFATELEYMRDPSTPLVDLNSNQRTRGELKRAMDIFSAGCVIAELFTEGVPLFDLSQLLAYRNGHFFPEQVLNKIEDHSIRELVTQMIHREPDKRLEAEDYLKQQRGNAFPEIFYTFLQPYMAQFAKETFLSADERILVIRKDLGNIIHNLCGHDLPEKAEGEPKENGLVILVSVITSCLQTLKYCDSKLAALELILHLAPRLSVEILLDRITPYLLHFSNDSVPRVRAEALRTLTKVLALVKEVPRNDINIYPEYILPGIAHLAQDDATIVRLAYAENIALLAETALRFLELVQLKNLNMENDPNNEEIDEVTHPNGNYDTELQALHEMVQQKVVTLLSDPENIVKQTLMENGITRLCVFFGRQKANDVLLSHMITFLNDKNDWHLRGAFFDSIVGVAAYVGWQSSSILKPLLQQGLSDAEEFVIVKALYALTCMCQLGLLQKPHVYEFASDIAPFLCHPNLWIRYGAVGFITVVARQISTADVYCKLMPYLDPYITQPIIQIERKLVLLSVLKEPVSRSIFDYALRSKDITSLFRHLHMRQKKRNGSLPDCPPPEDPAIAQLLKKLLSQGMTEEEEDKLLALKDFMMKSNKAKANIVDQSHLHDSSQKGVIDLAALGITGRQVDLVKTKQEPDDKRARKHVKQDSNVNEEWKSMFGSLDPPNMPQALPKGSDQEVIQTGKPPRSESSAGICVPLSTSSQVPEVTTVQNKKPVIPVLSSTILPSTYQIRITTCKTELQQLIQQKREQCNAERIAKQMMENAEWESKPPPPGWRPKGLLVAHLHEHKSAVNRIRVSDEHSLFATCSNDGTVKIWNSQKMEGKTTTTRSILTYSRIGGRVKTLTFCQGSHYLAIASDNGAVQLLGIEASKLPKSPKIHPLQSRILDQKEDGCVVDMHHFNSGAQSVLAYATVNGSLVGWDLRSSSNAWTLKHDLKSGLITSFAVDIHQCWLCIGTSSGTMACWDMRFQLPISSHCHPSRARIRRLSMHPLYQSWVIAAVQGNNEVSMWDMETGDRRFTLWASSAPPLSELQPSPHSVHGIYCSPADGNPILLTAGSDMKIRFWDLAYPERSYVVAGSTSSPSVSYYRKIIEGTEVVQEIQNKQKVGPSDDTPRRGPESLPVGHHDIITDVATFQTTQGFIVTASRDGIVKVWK
# Procedure, shortened: as §1
# SRPK2 = SRPK2 (UniProt P78362)
# Chain of SRPK2 (P78362 whole entry, looked up): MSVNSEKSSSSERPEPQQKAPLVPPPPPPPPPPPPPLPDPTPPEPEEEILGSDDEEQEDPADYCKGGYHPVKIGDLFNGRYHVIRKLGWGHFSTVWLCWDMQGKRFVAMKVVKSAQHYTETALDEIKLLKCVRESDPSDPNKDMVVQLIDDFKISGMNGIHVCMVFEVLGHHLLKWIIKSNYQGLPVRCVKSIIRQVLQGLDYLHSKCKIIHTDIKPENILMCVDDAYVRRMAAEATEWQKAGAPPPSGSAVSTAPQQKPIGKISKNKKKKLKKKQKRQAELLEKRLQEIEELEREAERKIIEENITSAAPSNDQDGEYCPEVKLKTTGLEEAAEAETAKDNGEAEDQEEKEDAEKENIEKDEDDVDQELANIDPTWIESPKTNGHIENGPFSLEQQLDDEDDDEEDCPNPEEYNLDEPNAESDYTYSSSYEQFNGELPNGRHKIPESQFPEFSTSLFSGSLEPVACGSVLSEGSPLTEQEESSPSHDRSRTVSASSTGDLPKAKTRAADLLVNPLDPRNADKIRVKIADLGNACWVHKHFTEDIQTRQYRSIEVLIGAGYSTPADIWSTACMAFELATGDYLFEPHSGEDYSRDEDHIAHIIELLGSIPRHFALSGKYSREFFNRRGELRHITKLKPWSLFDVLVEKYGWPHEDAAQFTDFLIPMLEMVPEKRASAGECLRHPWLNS
# Procedure, shortened: as §1
# CAMK1D = CAMK1D (UniProt Q8IU85)
# Chain of CAMK1D (Q8IU85 whole entry, looked up): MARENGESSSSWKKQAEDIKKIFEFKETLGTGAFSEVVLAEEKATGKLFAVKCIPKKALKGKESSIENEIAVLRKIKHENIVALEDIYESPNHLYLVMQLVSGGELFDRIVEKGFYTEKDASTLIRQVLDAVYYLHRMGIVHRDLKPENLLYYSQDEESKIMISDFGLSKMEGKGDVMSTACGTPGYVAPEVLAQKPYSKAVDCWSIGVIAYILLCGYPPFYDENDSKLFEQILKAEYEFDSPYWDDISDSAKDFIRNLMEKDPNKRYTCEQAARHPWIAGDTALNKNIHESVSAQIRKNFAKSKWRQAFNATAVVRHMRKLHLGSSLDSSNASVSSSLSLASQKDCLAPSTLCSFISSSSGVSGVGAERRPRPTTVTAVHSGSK
# Procedure, shortened: as §1
# BRSK1 = target: T4, BRSK1 (UniProt Q8TDC3)
# T4 sequence (whole entry): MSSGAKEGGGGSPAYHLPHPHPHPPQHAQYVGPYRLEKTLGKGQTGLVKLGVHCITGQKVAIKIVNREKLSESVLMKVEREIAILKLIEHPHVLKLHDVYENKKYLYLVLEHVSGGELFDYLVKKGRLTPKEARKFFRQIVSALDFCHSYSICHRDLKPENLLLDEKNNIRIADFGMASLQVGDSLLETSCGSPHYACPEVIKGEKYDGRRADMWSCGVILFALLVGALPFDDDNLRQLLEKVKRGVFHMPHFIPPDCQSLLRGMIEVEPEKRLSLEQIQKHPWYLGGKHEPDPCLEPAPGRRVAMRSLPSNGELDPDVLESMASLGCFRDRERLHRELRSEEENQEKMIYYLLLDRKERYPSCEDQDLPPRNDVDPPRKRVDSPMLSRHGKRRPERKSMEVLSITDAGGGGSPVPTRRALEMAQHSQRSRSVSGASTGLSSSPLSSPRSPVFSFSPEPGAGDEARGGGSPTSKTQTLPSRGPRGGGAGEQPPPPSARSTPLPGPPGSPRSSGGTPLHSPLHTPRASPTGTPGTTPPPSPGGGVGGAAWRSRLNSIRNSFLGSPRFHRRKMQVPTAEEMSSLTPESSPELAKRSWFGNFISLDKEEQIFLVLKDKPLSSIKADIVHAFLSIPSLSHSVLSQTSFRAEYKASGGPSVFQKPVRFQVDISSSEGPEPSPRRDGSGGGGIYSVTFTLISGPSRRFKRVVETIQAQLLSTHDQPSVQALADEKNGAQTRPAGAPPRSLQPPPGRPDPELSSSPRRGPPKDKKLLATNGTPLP
# Procedure, shortened: as §1
# UniProt Q9H093 = conditions: cell material: Lysate mix
# Chain of UniProt Q9H093 (Q9H093 whole entry): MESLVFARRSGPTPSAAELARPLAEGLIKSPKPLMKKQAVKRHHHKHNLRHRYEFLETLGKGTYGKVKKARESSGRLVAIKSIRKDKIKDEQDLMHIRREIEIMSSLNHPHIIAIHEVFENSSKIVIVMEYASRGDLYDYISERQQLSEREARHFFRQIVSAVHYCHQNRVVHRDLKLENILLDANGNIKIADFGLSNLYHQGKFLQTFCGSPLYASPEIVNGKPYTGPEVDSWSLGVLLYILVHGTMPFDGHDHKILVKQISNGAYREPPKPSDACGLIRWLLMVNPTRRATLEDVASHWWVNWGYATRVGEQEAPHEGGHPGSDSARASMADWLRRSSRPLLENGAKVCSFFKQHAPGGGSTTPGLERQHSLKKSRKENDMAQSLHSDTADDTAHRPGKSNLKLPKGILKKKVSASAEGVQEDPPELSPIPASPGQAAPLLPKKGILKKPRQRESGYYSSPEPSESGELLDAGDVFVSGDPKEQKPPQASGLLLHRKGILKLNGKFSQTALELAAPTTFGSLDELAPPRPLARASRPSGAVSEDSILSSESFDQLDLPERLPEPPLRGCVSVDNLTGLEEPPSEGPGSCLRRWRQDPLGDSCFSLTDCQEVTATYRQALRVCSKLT
# Procedure, shortened: as §1
# Chain of UniProt Q6XUX3 (Q6XUX3 whole entry): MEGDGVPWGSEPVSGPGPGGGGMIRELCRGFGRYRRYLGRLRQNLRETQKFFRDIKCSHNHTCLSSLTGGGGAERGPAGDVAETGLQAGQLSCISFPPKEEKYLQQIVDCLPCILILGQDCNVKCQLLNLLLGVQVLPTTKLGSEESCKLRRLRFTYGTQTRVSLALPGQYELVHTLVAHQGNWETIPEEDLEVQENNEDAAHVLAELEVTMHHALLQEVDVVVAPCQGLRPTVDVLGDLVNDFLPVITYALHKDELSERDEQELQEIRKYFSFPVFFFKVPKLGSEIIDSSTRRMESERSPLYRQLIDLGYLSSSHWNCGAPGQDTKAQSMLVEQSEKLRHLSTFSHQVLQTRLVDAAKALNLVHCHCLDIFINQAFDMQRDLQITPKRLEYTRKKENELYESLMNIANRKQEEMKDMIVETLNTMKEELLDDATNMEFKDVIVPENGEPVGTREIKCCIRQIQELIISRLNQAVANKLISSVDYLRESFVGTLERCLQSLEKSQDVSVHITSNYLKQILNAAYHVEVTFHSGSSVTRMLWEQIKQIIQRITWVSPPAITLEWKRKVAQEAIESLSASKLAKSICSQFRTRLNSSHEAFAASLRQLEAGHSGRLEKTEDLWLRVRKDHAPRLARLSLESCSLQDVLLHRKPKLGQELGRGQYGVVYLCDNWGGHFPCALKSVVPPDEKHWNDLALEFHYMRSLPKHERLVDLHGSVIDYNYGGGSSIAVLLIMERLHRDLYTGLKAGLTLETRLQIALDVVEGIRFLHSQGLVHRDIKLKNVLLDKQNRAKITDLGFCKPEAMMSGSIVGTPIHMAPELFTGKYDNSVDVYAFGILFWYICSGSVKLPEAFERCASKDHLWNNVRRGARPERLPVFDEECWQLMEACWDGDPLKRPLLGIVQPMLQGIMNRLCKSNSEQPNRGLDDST
pIC50 (UniProt Q6XUX3),pIC50 (UniProt Q9H093),SMILES,pIC50 (ITK; cell material: Jurkat cells),pIC50 (ITK; cell material: Jurkat lysate),pIC50 (PBK),pIC50 (RNASEL),pIC50 (RIOK1; cell material: Jurkat cells),pIC50 (RIOK1; cell material: Jurkat lysate),pIC50 (PIK3R4),pIC50 (SRPK2; cell material: Jurkat cells),pIC50 (SRPK2; cell material: Jurkat lysate),pIC50 (CAMK1D; cell material: Jurkat cells),pIC50 (CAMK1D; cell material: Jurkat lysate),pIC50 (BRSK1; cell material: Jurkat cells),pIC50 (BRSK1; cell material: Jurkat lysate)
5,,C#CCNC(=O)c1cc(Nc2cc(C)[nH]n2)nc(N2CCN(Cc3ccc(S(=O)(=O)F)cc3)CC2)n1,,,,,,,,,,,,,
,,C#CCNC(=O)c1cc(Nc2cc(C3CC3)[nH]n2)nc(N2CCN(Cc3ccc(S(=O)(=O)F)cc3)CC2)n1,6.78,5.4,< 4.52,< 4.52,< 4.52,< 4.52,4.69,< 4.52,< 4.52,5.94,< 4.52,6.05,< 4.52
5.77,< 4.52,O=C(NCCNC(=O)c1cc(Nc2cc(C3CC3)[nH]n2)nc(N2CCN(Cc3ccc(S(=O)(=O)F)cc3)CC2)n1)OC1CC/C=C/CCC1 (centres undefined),6.7,< 4.52,< 4.52,< 4.52,< 4.52,< 4.52,< 4.52,< 4.52,< 4.52,5.82,,6.6,< 4.52
,< 4.52,Cc1cc(Nc2cc(C(=O)NCCNC(=O)OC3CC/C=C/CCC3)nc(N3CCN(Cc4ccc(S(=O)(=O)F)cc4)CC3)n2)n[nH]1 (centres undefined),,,,,,,,,,,,,
